From patent publication US9375450B2, “Vaginal tissue rejuvenation compositions and methods” (priority 2011, dated 2016)

Key:
[1] = test system: rat vaginal Col1a1, Col3a1, Col5a1 mRNA; experiment: qRT-PCR of vaginal collagen gene expression after 2 weeks vaginal suppositories; type: in vivo; details: OVX rats, vaginal suppositories 2 weeks, mean±SD; for ratio of vaginal Col1a1 to Col3a1 mRNA expression: placebo 0.78±0.2; for ratio of vaginal Col1a1 to Col5a1 mRNA expression: placebo 4.3±1.9
Description: Ten to 12-weeks old female ovariectomized (OVX) Sprague-Dawley rats were utilized for the experiments. The animals were acclimatized to the environmental conditions before starting the experiment. The animals were housed individually and were allowed free access to water and rodent food. Two weeks after the ovariectomy rats (n=36) were divided into five groups: control (receiving placebo suppositories, n=8), Zinc (receiving zinc sulfate containing suppositories, n=8), GW (receiving GW501516 containing suppositories, n=8), Zinc with GW (receiving Zinc with GW 501516 containing suppositories, n=8) and Estradiol (receiving estradiol containing suppositories, n=4).
The suppositories were prepared according to the fusion method, using a polypeg suppository base (MEDISCA, N.Y., USA). […] Using a microwave, the suppository base was melted in a small beaker for 3 min and then transferred and kept into a water bath at a temperature of 55° C. The proper amount of above reagent was added to the liquefied base and meticulously crushed with a smooth rounded-end glass rod for about 20 min to make the solution to be even and clear. A pipette tip was used to suck some amount of solution and push it into a plastic tube with a diameter of 3.5 mm, and the tube was immediately left on the flat surface of an ice bucket. The suppository turned to white in color when it was solid. The moulded suppository was then pushed out of the tube using a round rod. The moulded suppository was cut using a razor blade to a length of 1.2 cm each, which was calibrated to equal a volume of 50±5 μl per each suppository. After 30 min of cooling at room temperature, the suppositories were stored at 4° C. in a closed chamber until use. They were left to reach room temperature before use.
The day after the last treatment the rats were overnight fasted and then sacrificed. Macroscopic measurement (genital hiatus, vaginal length) were taken and the vagina was dissected out carefully to avoid any injury to the vagina. The mid section of the vagina was utilized for histology (H and E stain, Masson's trichrome stain) and immunofluorescence and the rest of the vagina was used for RNA extraction and RT-PCR.
Total RNA was isolated from 20 mg of vaginal rat tissue in each experimental rat group using the RNeasy Mini kit (Qiagen) according to the manufacturer's specifications. For each total RNA preparation, DNase digestion was performed to remove contaminating genomic DNA. Total RNA samples from each tissue were quantified and evaluated for RNA integrity by the Agilent Bioanalyzer 2100 (Applied Biosystems, Foster City Calif., USA). Following RNA extraction, cDNA was reverse transcribed from ˜500 ng of each total RNA preparation using the qScript cDNA synthesis kit (Quanta Biosciences, Gaithersburg Md., USA). Finally, cDNA samples were used to perform gene expression analysis by qRT-PCR using SYBR Green technology on the RealPlex EP Mastercycler (Eppendorf, Germany) of five genes with known roles in vaginal tissue reconstruction: Collagen IaI (col 1a1), Collagen IIIaI (col 3a1), Collagen VaI (col 5a1), Elastin (eln), Tensin I (tns-1). Glyceraldehyde-3 Phosphate Dehydrogenase (gapdh) was used as a positive control to normalize the expression of each gene. Each qRT-PCR reaction was run in triplicate using Perfecta SYBR Green Supermix (Quanta Biosciences, Gaithersburg Md., USA) in 25 μL reaction volumes using a final concentration of 300 nM forward and reverse primers. For each of the genes analyzed in this study, primers were designed using Primer-BLAST software (NCBI) and synthesized by IDT Technologies (San Diego, Calif.).

[2] = test system: primary vaginal smooth muscle cells; experiment: Sircol collagen assay (cell culture surface deposited collagen); type: cell-based, human; details: 48 hours of treatment, mean±SD
Description: (§1) After removal of the uterus, full-thickness samples of the anterior vaginal wall were obtained from the vaginal cuff at the anterior midline portion under sterile condition from four women without POP. Specimens were preserved in cold DMEM/F12 (Invitrogen, Carlsbad, Calif.) supplemented with 10% FBS, 1 mM glutamine, 0.075% Na2HCO3 and 100 ug/ml penicillin-streptomycin. After a maximum time of 4 hours from tissue harvesting the tissue was mechanically minced in cold cultured media and the fragments were washed 3 times in PBS and were plated onto fibronectin coated plastic dishes (Thermo Fischer Scientific, Rochester, N.Y.). After the initial outgrowth, clones with a morphology resembling the smooth muscle phenotype were patch cloned and propagated in culture. For cell characterization a 5000 cell/well fibronectin coated 8-well chamber slide was plated. Once cell confluence reached 80% the cells were washed twice with PBS and fixed in 4% PFA for 30 min at 37° C. To verify the intracytoplasmic distribution of F-actin fibers 4% PFA fixed cells were exposed to a permeabilizing solution of Tryton X100 0.1% and Rhodamine Phalloidin for 45 min at 37° C. Slides were then treated with mounting media (Vectashield, Vector Laboratories, Burlingame, Calif.) containing DAPI for nucleic acid staining and image acquisition was performed in glycerol immersion by confocal microscopy. In addition, the 8-well chamber slides were used to carry out the immunocytochemical staining. After blockage of endogenous peroxidase activity with a solution of hydrogen peroxide and methanol, slides were sequentially treated with the primary mouse antibody, biotinylated anti-mouse immunoglobulin, and Streptavidin-biotin-peroxidase complex (LSAB™+/HRP kit, Dako, Carpinteria, Calif.). Diaminobenzidine was used as a chromogen in the presence of hydrogen peroxide. Slides were then counterstained with hematoxylin. All reactions were carried out at room temperature (22° C.). To identify the SMC, anti-smooth muscle actin antibodies were used (monoclonal mouse, 1:250, 30 min incubation, clone 1A4, catalog #0851 Dako, Carpinteria, Calif.). Caldesmon expression was studied with a monoclonal mouse antibody, 1:100, 30 min incubation, (clone h-CD catalog #M3557 Dako, Carpinteria, Calif.). An antigen retrieval step was used for caldesmon using citrate buffer and a steamer for 30 min. As a negative control normal mouse serum was substituted for the antibody.
The Sircol Assay (Biocolor Ltd., UK) is a dye-binding method designed for the analysis of acid and pepsin-soluble collagens. […]
The amount of collagen was determined by SIRCOL collagen assay according to manufacturer's instructions. […] Extracts were incubated with Sirius red dye and absorbance was determined at 555 nm with a spectrophotometer.

[3] = test system: primary vaginal smooth muscle cells; experiment: Fastin assay for elastin (tropoelastin and surface deposited elastin production); type: cell-based, human; details: for tropoelastin production normalized to cell number (% of control) / cell culture surface deposited elastin production normalized to cell number (% of control): mean±SD; for cell culture surface deposited elastin production normalized to cell number (% of control): 48 hours of treatment; for vaginal smooth muscle cell elastin production (in words): cell cultures of the vagina from women who have undergone a hysterectomy
Description: as §1
SMC from the fourth to sixth passages (5,000 cells per well) were cultured in 96-well or 6-well culture plates (Costar, Cambridge, Mass.), in a total volume of 200 μL or 2 mL DMEM/F-12 with 10% FBS and were grown to near confluence. Cells were incubated with zinc sulfate (10 μM, 20 μM), GW501516 (1 nM, 10 nM, 100 nM) or zinc sulfate with GW 501516 (20 μM with 10 nM) in 96-well plates with serum free DMEM/F-12. Treatment and control groups were performed in 6 replicate wells. Supernatants and cell lysates were collected 24 or 48 hrs after the initiation of treatment. Supernatants and cell lysates were treated with the Fastin Elastin Assay kit (Biocolor Ltd, UK) as recommended by the manufacturer. The Fastin Elastin Assay is a quantitative dye-binding method for the analysis of elastins extracted from biological materials. The dye label employed is 5, 10, 15, 20-tetraphenyl-21, 23-porphine tetra-suffocated (TPPS). The dye reagent binds to the ‘basic’ and ‘non-polar’ amino acid sequences found in mammalian elastins. Recovered dye-bound elastin from each sample and standard was read in a 96-well plate at 513 nm. All measurements were performed in quadruplicate. The measured elastin protein amounts were normalized to corresponding cell numbers to provide a reliable basis of comparison between samples.

| Structure (SMILES) | ratio of vaginal Col1a1 to Col3a1 mRNA expression [1] [relative units] | ratio of vaginal Col1a1 to Col5a1 mRNA expression [1] [relative units] | cell culture surface deposited collagen production normalized to cell number (% of control) ([2]; GW 10 nM) | cell culture surface deposited collagen production normalized to cell number (% of control) ([2]; GW 100 nM) | tropoelastin production normalized to cell number (% of control) ([3]; 1 nM, 24 hrs of culture) | tropoelastin production normalized to cell number (% of control) ([3]; 10 nM, 24 hrs of culture) | tropoelastin production normalized to cell number (% of control) ([3]; 100 nm, 24 hrs of culture) | cell culture surface deposited elastin production normalized to cell number (% of control) ([3]; GW 10 nM) | cell culture surface deposited elastin production normalized to cell number (% of control) ([3]; GW 100 nM) | vaginal smooth muscle cell elastin production (in words) [3] | cell culture surface deposited collagen production normalized to cell number (% of control) ([2]; zinc sulfate 10 μM) | cell culture surface deposited collagen production normalized to cell number (% of control) ([2]; zinc sulfate 20 μM) | tropoelastin production normalized to cell number (% of control) ([3]; 10 μM, 48 hrs of culture) | tropoelastin production normalized to cell number (% of control) ([3]; 20 μM, 48 hrs of culture) | cell culture surface deposited elastin production normalized to cell number (% of control) ([3]; zinc sulfate 10 μM) | cell culture surface deposited elastin production normalized to cell number (% of control) ([3]; zinc sulfate 20 μM) |
| --- | --- | --- | --- | --- | --- | --- | --- | --- | --- | --- | --- | --- | --- | --- | --- | --- |
| Cc1cc(SCc2sc(-c3ccc(C(F)(F)F)cc3)nc2C)ccc1OCC(=O)O [GW501516, 2-[2-methyl-4-([4-methyl-2-[4-(trifluoromethyl)phenyl)-1,3-thiazol-5-yl]methylsulfanyl]phenoxy]acetic acid] | 1.0±0.2 | 8.8±3.0 | 151.0±22 % of control | 118.2±19 % of control | 106.6±16 % of control | 120.5±16 % of control | 146.7±11 % of control | 108.2±6 % of control | 112.2±16 % of control | significantly increase | – | – | – | – | – | – |
| O.O.O.O.O.O.O.O=S(=O)([O-])[O-].[Zn+2] [zinc sulfate, zinc sulfate heptahydrate] | 0.95±0.1 | 9.7±2.5 | – | – | – | – | – | – | – | significantly increased | 139.3±49 % of control | 129.6±27 % of control | 113.3±11 % of control | 117±8.9 % of control | 114.7±6 % of control | 118.0±25 % of control |
